PubChem BioAssay AID1918931 (Molecular Pharmacology Branch, DTP, NCI, 2023)
Several values for one entry are separate records, joined by “and”; a condition that tells them apart may be missing. Equal values may be shown once.

System: 138582-337-R-J1-PDC complex spheroid viability
Test: Anticancer human tumor 138582-337-R-J1-PDC patient-derived Merkel cell tumor cell line growth inhibition
Conditions: for viability, T/C: stronger effect = lower value
How it was run: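 Complex spheroids of tumor cells with HUVEC and human MSCs, exposed to iadademstat combined with other agents. Each agent tested in half-log steps from near clinical Cmax (else 10 microM top), DMSO ≤0.25%.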

[1] = curve of first compound, second compound 0.1 µM
[2] = curve of first compound, second compound 0.316 µM
[3] = curve of first compound, second compound 1 µM
[4] = curve of first compound, second compound 3.16 µM
[5] = curve of first compound, second compound 10 µM
[6] = second compound 0.1 µM, first compound 0.0316 µM
[7] = second compound 0.1 µM, first compound 0.1 µM
[8] = second compound 0.1 µM, first compound 0.316 µM
[9] = second compound 0.1 µM, first compound 1 µM
[10] = second compound 0.1 µM, first compound 3.16 µM
[11] = second compound 0.1 µM, first compound 10 µM
[12] = second compound 0.316 µM, first compound 0.0316 µM
[13] = second compound 0.316 µM, first compound 0.1 µM
[14] = second compound 0.316 µM, first compound 0.316 µM
[15] = second compound 0.316 µM, first compound 1 µM
[16] = second compound 0.316 µM, first compound 3.16 µM
[17] = second compound 0.316 µM, first compound 10 µM
[18] = second compound 1 µM, first compound 0.0316 µM
[19] = second compound 1 µM, first compound 0.1 µM
[20] = second compound 1 µM, first compound 0.316 µM
[21] = second compound 1 µM, first compound 1 µM
[22] = second compound 1 µM, first compound 3.16 µM
[23] = second compound 1 µM, first compound 10 µM
[24] = second compound 3.16 µM, first compound 0.0316 µM
[25] = second compound 3.16 µM, first compound 0.1 µM
[26] = second compound 3.16 µM, first compound 0.316 µM
[27] = second compound 3.16 µM, first compound 1 µM
[28] = second compound 3.16 µM, first compound 3.16 µM
[29] = second compound 3.16 µM, first compound 10 µM
[30] = second compound 10 µM, first compound 0.0316 µM
[31] = second compound 10 µM, first compound 0.1 µM
[32] = second compound 10 µM, first compound 0.316 µM
[33] = second compound 10 µM, first compound 1 µM
[34] = second compound 10 µM, first compound 3.16 µM
[35] = second compound 10 µM, first compound 10 µM
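Throughout, for viability, T/C: 100% = DMSO vehicle control viability.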

| SMILES | IC50 [1] [µM] | IC50 [2] [µM] | IC50 [3] [µM] | IC50 [4] [µM] | IC50 [5] [µM] | viability, T/C [6] [%] | viability, T/C [7] [%] | viability, T/C [8] [%] | viability, T/C [9] [%] | viability, T/C [10] [%] | viability, T/C [11] [%] | viability, T/C [12] [%] | viability, T/C [13] [%] | viability, T/C [14] [%] | viability, T/C [18] [%] | viability, T/C [19] [%] | viability, T/C [24] [%] | viability, T/C [25] [%] | viability, T/C [30] [%] | viability, T/C [31] [%] | other results |
| --- | --- | --- | --- | --- | --- | --- | --- | --- | --- | --- | --- | --- | --- | --- | --- | --- | --- | --- | --- | --- | --- |
| O=C(c1cc(Cc2n[nH]c(=O)c3ccccc23)ccc1F)N1CCN(C(=O)C2CC2)CC1 + NC1CC1c1ccc(-c2cccc(O)c2)cc1 | 9.08 | 5.15 | > 10 | > 10 | > 10 | 72 | 74.9 | 68.4 | 68.5 | 58.6 | 49.5 | 68.6 | 73.7 | 66.2 | 76.5 | 77.3 | 78.8 | 79.8 | 81.5 | 81.1 | viability, T/C [15]: 57.6%; viability, T/C [16]: 53.6%; viability, T/C [17]: 45.7%; viability, T/C [20]: 70.9%; viability, T/C [21]: 64.8%; viability, T/C [22]: 62.4%; viability, T/C [23]: 57.4%; viability, T/C [26]: 82.4%; viability, T/C [27]: 70.7%; viability, T/C [28]: 80%; viability, T/C [29]: 60.6%; viability, T/C [32]: 80.3%; viability, T/C [33]: 93.3%; viability, T/C [34]: 71.3%; viability, T/C [35]: 87.1% |
| CC1(C)CCC(CN2CCN(c3ccc(C(=O)NS(=O)(=O)c4ccc(NCC5CCOCC5)c([N+](=O)[O-])c4)c(Oc4cnc5[nH]ccc5c4)c3)CC2)=C(c2ccc(Cl)cc2)C1 + NC1CC1c1ccc(-c2cccc(O)c2)cc1 | 3.98 | 3.76 | 4.03 | 3.27 | 3.55 | 63.8 | 55.9 | 56.7 | 66.3 | 66.6 | 2.31 | 70.8 | 63 | 59.4 | 69.7 | 64.2 | 62.9 | 68.5 | 62.3 | 69.8 | viability, T/C [15]: 67.9%; viability, T/C [16]: 58.1%; viability, T/C [17]: 2.2%; viability, T/C [20]: 78%; viability, T/C [21]: 64%; viability, T/C [22]: 63.5%; viability, T/C [23]: 1.33%; viability, T/C [26]: 57.9%; viability, T/C [27]: 65.3%; viability, T/C [28]: 51.6%; viability, T/C [29]: 2.03%; viability, T/C [32]: 72.9%; viability, T/C [33]: 70.4%; viability, T/C [34]: 55.6%; viability, T/C [35]: 1.17% |
| CC1(C)CCC(CN2CCN(c3ccc(C(=O)NS(=O)(=O)c4ccc(NCC5CCOCC5)c([N+](=O)[O-])c4)c(Oc4cnc5[nH]ccc5c4)c3)CC2)=C(c2ccc(Cl)cc2)C1 + NC1CCC(NC2CC2c2ccccc2)CC1 | > 10 | > 10 | > 10 | > 10 | > 10 | 85.4 | 95 | 92.5 | 91.8 | 90.7 | 126 | 95.9 | 104 | 99.1 | 99.8 | 89.9 | 90.7 | 100 | 80.2 | 88.1 | viability, T/C [15]: 109%; viability, T/C [16]: 96.8%; viability, T/C [17]: 88.7%; viability, T/C [20]: 82.3%; viability, T/C [21]: 79.9%; viability, T/C [22]: 92.1%; viability, T/C [23]: 81.3%; viability, T/C [26]: 108%; viability, T/C [27]: 106%; viability, T/C [28]: 92.5%; viability, T/C [29]: 77.3%; viability, T/C [32]: 70.8%; viability, T/C [33]: 78.7%; viability, T/C [34]: 78.3%; viability, T/C [35]: 63.5% |
| CCc1c2c(nc3ccc(O)cc13)-c1cc3c(c(=O)n1C2)COC(=O)[C@]3(O)CC | – | – | – | – | – | – | – | – | – | – | – | – | – | – | – | – | – | – | – | – | viability, T/C (compound 0.000949 µM): 71.5% and 50.2%; viability, T/C (compound 0.003 µM): 68.2% and 39%; viability, T/C (compound 0.00949 µM): 48.7% and 26.2%; viability, T/C (compound 0.03 µM): 11.6% and 0.27%; viability, T/C (compound 0.0949 µM): 0.5% and 0.83%; viability, T/C (compound 0.3 µM): 0.52% and 0.33%; IC50 (curve of compound): 0.00876 µM and < 0.000949 µM |
| Cn1ncnc1C1c2n[nH]c(=O)c3cc(F)cc(c23)NC1c1ccc(F)cc1 (configuration not stated) + NC1CCC(NC2CC2c2ccccc2)CC1 | > 0.1 | > 0.1 | > 0.1 | > 0.1 | > 0.1 | 87.9 | 98.5 | – | – | – | – | 93.3 | 105 | – | 90.7 | 97.9 | 82.3 | 102 | 73.7 | 81.5 | viability, T/C (second compound 0.1 µM, first compound 0.000316 µM): 82.5%; viability, T/C (second compound 0.1 µM, first compound 0.001 µM): 87.7%; viability, T/C (second compound 0.1 µM, first compound 0.00316 µM): 89%; viability, T/C (second compound 0.1 µM, first compound 0.01 µM): 91.2%; viability, T/C (second compound 0.316 µM, first compound 0.000316 µM): 84.7%; viability, T/C (second compound 0.316 µM, first compound 0.001 µM): 90.9%; viability, T/C (second compound 0.316 µM, first compound 0.00316 µM): 95.7%; viability, T/C (second compound 0.316 µM, first compound 0.01 µM): 79.1%; viability, T/C (second compound 1 µM, first compound 0.000316 µM): 97.5%; viability, T/C (second compound 1 µM, first compound 0.001 µM): 88.7%; viability, T/C (second compound 1 µM, first compound 0.00316 µM): 94.3%; viability, T/C (second compound 1 µM, first compound 0.01 µM): 83.8%; viability, T/C (second compound 3.16 µM, first compound 0.000316 µM): 101%; viability, T/C (second compound 3.16 µM, first compound 0.001 µM): 89.4%; viability, T/C (second compound 3.16 µM, first compound 0.00316 µM): 83.1%; viability, T/C (second compound 3.16 µM, first compound 0.01 µM): 81.2%; viability, T/C (second compound 10 µM, first compound 0.000316 µM): 84.7%; viability, T/C (second compound 10 µM, first compound 0.001 µM): 82.8%; viability, T/C (second compound 10 µM, first compound 0.00316 µM): 83.2%; viability, T/C (second compound 10 µM, first compound 0.01 µM): 77% |
